This assay concerns concanavalin A (ConA)-stimulated murine splenocytes. In words: Concanavalin A-stimulated murine splenocyte assay ([3H]thymidine incorporation). It counts as cell-based, mouse (BALB/c). The method, then: Male BALB/c mice, at 5 to 7 weeks of age, were sacrificed by CO2 inhalation. Spleens were removed and dissociated by pushing through a nylon cell strainer. The splenocytes were washed in RPMI 1640/5% fetal calf serum (FCS) and pelleted at 400×g. Red blood cells were then lysed by resuspending the cell pellet in ACK lysis buffer (150 mM NH4Cl, 1 mM KHCO3, 0.1 mM EDTA, 3 mL per spleen) for 10 min at room temperature. After pelleting at 400×g, the cells were washed by resuspending in RPMI 1640/5% FCS and repelleting. The cell pellet was resuspended in RPMI 1640/5% FCS and again passed through a cell strainer to remove cell aggregates. The cells were then counted and adjusted to 2×10^6 cells/ml in RPMI 1640/10% FCS/50 μM 2-mercaptoethanol. Cell viability was assessed by Trypan blue staining. […] The cells were cultured in a 37° C. CO2 incubator for 2 days and then pulsed with 1 μCi of [^3H]thymidine for 6 hours. Cells were harvested onto filtermats with a TomTec 96 well plate harvester and lysed with H2O. The filtermat and scintillation fluid were sealed in a plastic sleeve. [^3H]thymidine incorporation was measured with a Wallac Trilux plate counter. Initial screens were done at a fixed value of 100 ng/ml test compound. IC50s were calculated from 7 point concentration-response curves using graphPad software.

The results in this text go back to patent publication US7696165B2 (Albany Molecular Research, Inc., priority 2006, dated 2010).

Values after ≈ are worked out from the molar mass of the structure shown.

On to `C/C=C\C#CC[C@@H](C)[C@@H](O)[C@H]1C(=O)N[C@@H](CC)C(=O)N(C)CC(=O)N(C)[C@@H](CC(C)C)C(=O)N[C@@H](C(C)C)C(=O)N(C)[C@@H](CC(C)C)C(=O)N[C@@H](C)C(=O)N[C@H](C)C(=O)N(C)[C@@H](CC(C)C)C(=O)N(C)[C@@H](CC(C)C)C(=O)N(C)[C@@H](C(C)C)C(=O)N1C` [Example 14, cis-cyclosporin yne-ene], for which the “IC50” value turned out to be 0.032 µg/mL (≈ 0.0261 µM).
In the case of `C#CC#CC[C@@H](C)[C@@H](O)[C@H]1C(=O)N[C@@H](CC)C(=O)N(C)CC(=O)N(C)[C@@H](CC(C)C)C(=O)N[C@@H](C(C)C)C(=O)N(C)[C@@H](CC(C)C)C(=O)N[C@@H](C)C(=O)N[C@H](C)C(=O)N(C)[C@@H](CC(C)C)C(=O)N(C)[C@@H](CC(C)C)C(=O)N(C)[C@@H](C(C)C)C(=O)N1C` [Example 25, cyclosporine diyne], the half-maximal inhibitory concentration (IC50) came out at 0.012 µg/mL (≈ 0.00991 µM). The “immunosuppressive potency compared to cyclosporin A” value (FIG. 1, ConA stimulated murine splenocyte assay) is on record as “two times more potent over cyclosporin A”.
For `CC#CC#CC[C@@H](C)[C@@H](O)[C@H]1C(=O)N[C@@H](CC)C(=O)N(C)CC(=O)N(C)[C@@H](CC(C)C)C(=O)N[C@@H](C(C)C)C(=O)N(C)[C@@H](CC(C)C)C(=O)N[C@@H](C)C(=O)N[C@H](C)C(=O)N(C)[C@@H](CC(C)C)C(=O)N(C)[C@@H](CC(C)C)C(=O)N(C)[C@@H](C(C)C)C(=O)N1C` [Example 27, cyclosporin diyne], the half-inhibitory concentration (IC50) is 0.012 µg/mL (≈ 0.0098 µM).
As to `C/C=C\C#CC#CC[C@@H](C)[C@@H](O)[C@H]1C(=O)N[C@@H](CC)C(=O)N(C)CC(=O)N(C)[C@@H](CC(C)C)C(=O)N[C@@H](C(C)C)C(=O)N(C)[C@@H](CC(C)C)C(=O)N[C@@H](C)C(=O)N[C@H](C)C(=O)N(C)[C@@H](CC(C)C)C(=O)N(C)[C@@H](CC(C)C)C(=O)N(C)[C@@H](C(C)C)C(=O)N1C` [Example 35, cis-cyclosporin yne-yne-ene], the “IC50” value was 0.077 µg/mL (≈ 0.0616 µM).
